Molecules are shown by their SMILES.

Results on one molecule are retold here after PMC4440585 (Biochemistry, 2015).

The target in the assay is mitochondrial complex I (Rattus norvegicus, UniProt A6K8N6+P03889+Q641Y2). In words: NADH oxidation at […] nm, NADH:ubiquinone-1 activity of solubilized mitochondria. The class given is biochemical. The note with it: read-out: % inhibition at 25 mM.

As usually defined, the inhibition is the change of the read-out against control, counted positive when it falls. With `CN(C)C(=N)NC(=N)N` [metformin], the inhibition at 25000 µM is 12.1%.
